# Target: Human recombinant PRMT5 in complex with human recombinant MEP50 (Homo sapiens (Human), UniProt O14744)
# Assay: PRMT5/MEP50 AlphaLISA enzyme inhibitory assay
# Type: biochemical
# Conditions: PRMT5/MEP50 25 nM, SAM 10 μM, Biotin-H4 peptide 30 nM
# Excerpt: Human recombinant PRMT5 in complex with human recombinant MEP50, co-expressed in an insect cell/baculovirus expression system was purchased from Reaction Biology (Malvern, Pa.). […] Anti-H4R3-Me AlphaLISA acceptor beads and Streptavidin labeled AlphaLISA donor beads were obtained from PerkinElmer (Waltham, Mass.). S-adenosylmethionine (SAM), Tween20, dimethylsulfoxide (DMSO), and Tris buffer were obtained from Sigma at the highest level of purity available.
# General Procedure for PRMT5/MEP50 AlphaLISA Enzyme Inhibitory Assays: Assays were performed in the buffer consisting of 50 mM Tris, pH 8.5, 5 mM MgCl2, 50 mM NaCl with 0.01% Tween20 and 1 mM DTT added right before the assay. 2.5 μL of compound solution in the assay buffer with 4% DMSO and 5 μL of PRMT5/MRP50 complex/SAM mixture solution in the assay buffer which was pre-incubated for 30 minutes were added into a white low volume 384 well microtiter plate. This mixture solution was incubated for 15 minutes with gentle shaking at room temperature. Methyl transfer reaction was initiated by adding 2.5 μL of Biotin-H4 (1-21) peptide substrate solution in the assay buffer. Final concentrations of PRMT5/MEP50, SAM, Biotin-H4 peptide substrate, and DMSO were 25 nM, 10 μM, 30 nM, and 1%, respectively. The reaction was allowed to perform for 120 minutes in dark with gentle shaking at room temperature after which 5 μL of Anti-H4R3-Me AlphaLISA acceptor beads in detection buffer from the manufacturer was added into the reaction mixture followed by incubation for 60 minutes. 10 μL of Streptavidin labeled AlphaLISA donor beads in detection buffer was added into the mixture followed by 30 minute incubation. Final acceptor and donor beads concentrations were 10 μg/mL. Plates were read on an Envision multimode plate reader from PerkinElmer (Waltham Mass., USA) with an excitation wavelength of 680 nm and emission wavelength of 615 nm. IC50 values of inhibitors were obtained by fitting the fluorescence intensity vs inhibitor concentrations in a sigmoidal dose-response curve (variable slopes, four parameters) using Prism 7 (La Jolla, Calif.).
# Sequence of Human recombinant PRMT5 in complex with human recombinant MEP50 (O14744 whole entry): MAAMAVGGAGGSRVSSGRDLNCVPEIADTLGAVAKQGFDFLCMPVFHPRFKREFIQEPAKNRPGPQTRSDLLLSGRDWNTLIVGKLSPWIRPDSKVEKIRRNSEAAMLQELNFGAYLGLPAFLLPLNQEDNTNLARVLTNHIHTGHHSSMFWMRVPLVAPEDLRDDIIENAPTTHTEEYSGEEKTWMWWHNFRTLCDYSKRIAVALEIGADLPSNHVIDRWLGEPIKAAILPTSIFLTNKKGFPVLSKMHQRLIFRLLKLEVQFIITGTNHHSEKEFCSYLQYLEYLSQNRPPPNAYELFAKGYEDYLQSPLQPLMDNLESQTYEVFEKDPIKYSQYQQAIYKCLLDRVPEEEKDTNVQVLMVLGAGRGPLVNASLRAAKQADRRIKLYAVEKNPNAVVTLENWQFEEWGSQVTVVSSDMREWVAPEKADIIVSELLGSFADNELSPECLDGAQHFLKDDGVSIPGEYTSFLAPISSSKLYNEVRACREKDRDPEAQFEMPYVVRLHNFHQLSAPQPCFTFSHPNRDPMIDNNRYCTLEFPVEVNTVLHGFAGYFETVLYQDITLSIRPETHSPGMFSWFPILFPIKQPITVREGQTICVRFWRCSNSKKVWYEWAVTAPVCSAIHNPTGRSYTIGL
# Sequence of Human recombinant PRMT5 in complex with human recombinant MEP50 (Q9BQA1 whole entry partner): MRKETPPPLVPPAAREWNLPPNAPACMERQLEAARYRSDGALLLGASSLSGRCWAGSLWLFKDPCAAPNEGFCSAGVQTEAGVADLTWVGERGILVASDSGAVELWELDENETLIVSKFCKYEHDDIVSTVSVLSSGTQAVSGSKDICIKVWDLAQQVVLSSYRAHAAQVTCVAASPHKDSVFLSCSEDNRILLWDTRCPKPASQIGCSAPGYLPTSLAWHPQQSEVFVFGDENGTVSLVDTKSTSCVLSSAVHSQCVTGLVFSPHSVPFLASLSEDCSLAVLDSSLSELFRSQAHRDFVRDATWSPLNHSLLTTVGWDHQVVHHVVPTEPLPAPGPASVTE
row,Structure (SMILES),IC50 [nM]
1,"CC(=O)N1CCC(Nc2ccc3c(c2)C(=O)N(CC(O)CN2CCc4ccccc4C2)CC3)CC1 (racemic) [Compound 24, 7-((1-acetylpiperidin-4-yl)amino)-2-(3-(3,4-dihydroisoquinolin-2(1H)-yl)-2-hydroxypropyl)-3,4-dihydroisoquinolin-1(2H)-one]",14
2,"O=C1c2cc(Nc3ccnnc3)ccc2OCCN1CC(O)CN1CCc2ccccc2C1 (racemic) [Compound 30, 4-(3-(3,4-dihydroisoquinolin-2(1H)-yl)-2-hydroxypropyl)-7-(pyridazin-4-ylamino)-3,4-dihydrobenzo[f][1,4]oxazepin-5(2H)-one]",13
3,"O=C1c2cc(NC3COC3)ccc2CCN1CC(O)CN1CCc2ccccc2C1 (stereo not shown) [Compound 1, 2-(3-(3,4-dihydroisoquinolin-2(1H)-yl)-2-hydroxypropyl)-7-(oxetan-3-ylamino)-3,4-dihydroisoquinolin-1(2H)-one]",97
4,"CC(=O)N1CCC(Nc2cc(F)c3c(c2)C(=O)N(C[C@@H](O)CN2CCc4ccccc4C2)CCO3)CC1 [Compound 2b, (S)-7-((1-acetylpiperidin-4-yl)amino)-4-(3-(3,4-dihydroisoquinolin-2(1H)-yl)-2-hydroxypropyl)-9-fluoro-3,4-dihydrobenzo[f][1,4]oxazepin-5(2H)-one]",159
5,"O=c1c2cc(NC3COC3)ccc2ncn1CC(O)CN1CCc2ccccc2C1 (stereo not shown) [Compound 3, 3-(3-(3,4-dihydroisoquinolin-2(1H)-yl)-2-hydroxypropyl)-6-(oxetan-3-ylamino)quinazolin-4(3H)-one]",568
6,"O=c1c2cc(NC3COC3)ccc2ccn1CC(O)CN1CCc2ccccc2C1 (stereo not shown) [Compound 4, 2-(3-(3,4-dihydroisoquinolin-2(1H)-yl)-2-hydroxypropyl)-7-(oxetan-3-ylamino)isoquinolin-1(2H)-one]",303
7,"O=C1c2cc(NC3COC3)ccc2OCCN1CC(O)CN1CCc2ccccc2C1 (stereo not shown) [Compound 5, 4-(3-(3,4-dihydroisoquinolin-2(1H)-yl)-2-hydroxypropyl)-7-(oxetan-3-ylamino)-3,4-dihydrobenzo[f][1,4]oxazepin-5(2H)-one]",131
8,"CC(=O)N1CC(Nc2ccc3c(c2)C(=O)N(CC(O)CN2CCc4ccccc4C2)CC3)C1 (stereo not shown) [Compound 6, 7-((1-acetylazetidin-3-yl)amino)-2-(3-(3,4-dihydroisoquinolin-2(1H)-yl)-2-hydroxypropyl)-3,4-dihydroisoquinolin-1(2H)-one]",77
9,"CS(=O)(=O)N1CC(Nc2ccc3c(c2)C(=O)N(C[C@@H](O)CN2CCc4ccccc4C2)CC3)C1 [Compound 8, (S)-2-(3-(3,4-dihydroisoquinolin-2(1H)-yl)-2-hydroxypropyl)-7-((1-(methylsulfonyl)azetidin-3-yl)amino)-3,4-dihydroisoquinolin-1(2H)-one]",232
10,"CN1CC(Nc2ccc3c(c2)C(=O)N(C[C@@H](O)CN2CCc4ccccc4C2)CC3)C1 [Compound 9, (S)-2-(3-(3,4-dihydroisoquinolin-2(1H)-yl)-2-hydroxypropyl)-7-((1-methylazetidin-3-yl)amino)-3,4-dihydroisoquinolin-1(2H)-one]",2440
11,"O=C1c2cc(N[C@H]3CCOC3)ccc2CCN1C[C@@H](O)CN1CCc2ccccc2C1 [Compound 10, 2-((S)-3-(3,4-dihydroisoquinolin-2(1H)-yl)-2-hydroxypropyl)-7-(((S)-tetrahydrofuran-3-yl)amino)-3,4-dihydroisoquinolin-1(2H)-one]",1010
12,"O=C1c2cc(N[C@@H]3CCOC3)ccc2CCN1C[C@@H](O)CN1CCc2ccccc2C1 [Compound 11, 2-((S)-3-(3,4-dihydroisoquinolin-2(1H)-yl)-2-hydroxypropyl)-7-(((R)-tetrahydrofuran-3-yl)amino)-3,4-dihydroisoquinolin-1(2H)-one]",462
13,Cn1cc(Nc2ccc3c(c2)C(=O)N(CC(O)CN2CCc4ccccc4C2)CC3)cn1 (stereo not shown) [Compound 12],29
14,"Cn1cc(Nc2ccc3c(c2)C(=O)N(C[C@@H](O)CN2CCc4ccccc4C2)CC3)cn1 [Compound 12b, (S)-2-(3-(3,4-dihydroisoquinolin-2(1H)-yl)-2-hydroxypropyl)-7-((1-methyl-1H-pyrazol-4-yl)amino)-3,4-dihydroisoquinolin-1(2H)-one]",235
15,"Cn1cc(-c2ccc3c(c2)C(=O)N(C[C@@H](O)CN2CCc4ccccc4C2)CC3)cn1 [Compound 13, (S)-2-(3-(3,4-dihydroisoquinolin-2(1H)-yl)-2-hydroxypropyl)-7-(1-methyl-1H-pyrazol-4-yl)-3,4-dihydroisoquinolin-1(2H)-one]",578
16,"O=C1c2cc(-c3cncnc3)ccc2CCN1CC(O)CN1CCc2ccccc2C1 (stereo not shown) [Compound 14, 2-(3-(3,4-dihydroisoquinolin-2(1H)-yl)-2-hydroxypropyl)-7-(pyrimidin-5-yl)-3,4-dihydroisoquinolin-1(2H)-one]",158
17,"CC1(C)CN(CC(O)CN2CCc3ccccc3C2)C(=O)c2cc(NC3COC3)ccc21 (stereo not shown) [Compound 15, 2-(3-(3,4-dihydroisoquinolin-2(1H)-yl)-2-hydroxypropyl)-4,4-dimethyl-7-(oxetan-3-ylamino)-3,4-dihydroisoquinolin-1(2H)-one]",217
18,"O=C1c2cc(NC3COC3)cnc2CCN1CC(O)CN1CCc2ccccc2C1 (stereo not shown) [Compound 16, 6-(3-(3,4-dihydroisoquinolin-2(1H)-yl)-2-hydroxypropyl)-3-(oxetan-3-ylamino)-7,8-dihydro-1,6-naphthyridin-5(6H)-one]",447
19,"CC(=O)N1CCC(Nc2cc3c(cc2F)OCCN(C[C@H](O)CN2CCc4ccccc4C2)C3=O)CC1 [Compound 17a, (R)-7-((1-acetylpiperidin-4-yl)amino)-4-(3-(3,4-dihydroisoquinolin-2(1H)-yl)-2-hydroxypropyl)-8-fluoro-3,4-dihydrobenzo[f][1,4]oxazepin-5(2H)-one]",248
20,"CC(=O)N1CCC(Nc2cc3c(cc2F)OCCN(C[C@@H](O)CN2CCc4ccccc4C2)C3=O)CC1 [Compound 17b, (S)-7-((1-acetylpiperidin-4-yl)amino)-4-(3-(3,4-dihydroisoquinolin-2(1H)-yl)-2-hydroxypropyl)-8-fluoro-3,4-dihydrobenzo[f][1,4]oxazepin-5(2H)-one]",722
21,"O=C1c2cc(NC3CCOCC3)cnc2CCN1CC(O)CN1CCc2ccccc2C1 (stereo not shown) [Compound 18, 6-(3-(3,4-dihydroisoquinolin-2(1H)-yl)-2-hydroxypropyl)-3-((tetrahydro-2H-pyran-4-yl)amino)-7,8-dihydro-1,6-naphthyridin-5(6H)-one]",2220
22,"CC(=O)N1CCC(Nc2cnc3c(c2)C(=O)N(CC(O)CN2CCc4ccccc4C2)CC3)CC1 (stereo not shown) [Compound 19, 3-((1-acetylpiperidin-4-yl)amino)-6-(3-(3,4-dihydroisoquinolin-2(1H)-yl)-2-hydroxypropyl)-7,8-dihydro-1,6-naphthyridin-5(6H)-one]",623
23,"Cn1cc(Nc2cnc3c(c2)C(=O)N(CC(O)CN2CCc4ccccc4C2)CC3)cn1 (stereo not shown) [Compound 20, 6-(3-(3,4-dihydroisoquinolin-2(1H)-yl)-2-hydroxypropyl)-3-((1-methyl-1H-pyrazol-4-yl)amino)-7,8-dihydro-1,6-naphthyridin-5(6H)-one]",132
24,"CC1Cc2ccc(NC3COC3)cc2C(=O)N1CC(O)CN1CCc2ccccc2C1 (stereo not shown) [Compound 21, 2-(3-(3,4-dihydroisoquinolin-2(1H)-yl)-2-hydroxypropyl)-3-methyl-7-(oxetan-3-ylamino)-3,4-dihydroisoquinolin-1(2H)-one]",480
25,"O=C1c2cc(Nc3cnn(C4COC4)c3)ccc2CCN1CC(O)CN1CCc2ccccc2C1 (stereo not shown) [Compound 22, 2-(3-(3,4-dihydroisoquinolin-2(1H)-yl)-2-hydroxypropyl)-7-((1-(oxetan-3-yl)-1H-pyrazol-4-yl)amino)-3,4-dihydroisoquinolin-1(2H)-one]",21
26,"Cn1ccc(Nc2ccc3c(c2)C(=O)N(CC(O)CN2CCc4ccccc4C2)CC3)n1 (stereo not shown) [Compound 23, 2-(3-(3,4-dihydroisoquinolin-2(1H)-yl)-2-hydroxypropyl)-7-((1-methyl-1H-pyrazol-3-yl)amino)-3,4-dihydroisoquinolin-1(2H)-one]",61
27,"CC(=O)N1CCC(Nc2ccc3c(c2)C(=O)N(C[C@@H](O)CN2CCc4ccccc4C2)CC3)CC1 [Compound 24b, (S)-7-((1-acetylpiperidin-4-yl)amino)-2-(3-(3,4-dihydroisoquinolin-2(1H)-yl)-2-hydroxypropyl)-3,4-dihydroisoquinolin-1(2H)-one]",19
28,"O=C1c2cc(Nc3cnn(C4CCOCC4)c3)ccc2CCN1CC(O)CN1CCc2ccccc2C1 (stereo not shown) [Compound 25, 2-(3-(3,4-dihydroisoquinolin-2(1H)-yl)-2-hydroxypropyl)-7-((1-(tetrahydro-2H-pyran-4-yl)-1H-pyrazol-4-yl)amino)-3,4-dihydroisoquinolin-1(2H)-one]",10

# — US11591326B2, “Inhibitors of protein arginine methyltransferase 5 (PRMT5), pharmaceutical products thereof, and methods thereof” (PHARMABLOCK SCIENCES (NANJING), INC., priority 2018, dated 2023)
